Experimental data: paper PMC6271394, “Catechins and Procyanidins of Ginkgo biloba Show Potent Activities towards the Inhibition of β-Amyloid Peptide Aggregation and Destabilization of Preformed Fibrils” (Molecules, 2014)

Key:
[1] = biological target: T1, Aβ42 (Homo sapiens, UniProt P05067); assay: Polymerization assay (ThT fluorescence): inhibition of Aβ42 aggregation; format: biochemical; conditions: for IC50: 25 μM Aβ42, 1% DMSO, 50 mM phosphate buffer pH 7.5, 100 mM NaCl, ThT fluorescence
T1 construct: The Aβ42 peptide was produced by Bachem AG; purchased Bachem AG
Experimental: The polymerization assay was performed as previously described in the literature. For single compounds, the reaction mixture contained 25 μM Aβ42, 0.3, 1.0, 3.0, 10, or 30 μM C, EC, GC, EGC, P-B1, or P-B3, 1% DMSO, 50 mM phosphate buffer (pH 7.5) and 100 mM NaCl. Prior to being tested, the compounds were dissolved in DMSO at concentrations of 30, 100 and 300 μM, and 1.0 and 3.0 mM, and then added to the reaction mixture to final concentrations 0.3, 1.0, 3.0, 10, and 30 μM, respectively. For the extract and its fractions, different concentration sequences were incubated in the reaction mixture. With the exception of one sequence (i.e., 3.0, 10, 30, 100 and 200 μg/mL) for Fr. Ts and another (i.e., 0.3, 1.0, 3.0, 10, 30 μg/mL) for Fr. Ps, one concentration sequence (i.e., 1.0, 3.0, 10, 30 and 100 μg/mL) was used for the extract and all of the other fractions.
(§1) The fluorescence measurements were recorded on an Envision® 2104 Multilabel Reader (Perkin Elmer, Waltham, MA, USA), with optimized excitation and emission wavelengths of 430 (BW 24 nm) and 470 nm (BW 24 nm), respectively. The reaction mixture contained 5 μM ThT and 50 mM of glycine-NaOH buffer (pH 8.5). The IC50 and EC50 values were calculated using the GraphPad Prism 5 software. All results were expressed as the mean ± SEM, and statistical analyses were performed using the Student’s t test.

[2] = biological target: T1, Aβ42; design: method as in PMID 24727418; conditions: earlier work of the same authors; cited from earlier work
[3] = biological target: T2, preformed Aβ42 fibrils (Homo sapiens, UniProt P05067); assay: Destabilization assay (ThT fluorescence): destabilization of preformed Aβ42 fibrils; format: biochemical; conditions: for EC50: fibrils preformed from 25 μM Aβ42 (24 h, 37 °C), further 24 h at 37 °C with compound, ThT fluorescence
T2 construct: The Aβ42 peptide was produced by Bachem AG; purchased Bachem AG
Experimental: The destabilization assay used to evaluate the activities of the polyphenolic compounds towards the destabilization of preformed fibrils was performed as described by Ono et al.. Briefly, a reaction mixture containing 25 μM Aβ42 and 50 mM phosphate buffer (pH 7.5 and 100 mM NaCl) was incubated on a PCR system for 24 h at 37 °C to form fibrils. All of the test compounds (i.e., C, EC, GC, EGC, P-B1, and P-B3) were initially dissolved in DMSO at concentrations of 30, 100 and 300 μM, and 1 and 3 mM, before being added to the reaction mixture to give final concentrations of 0.3, 1.0, 3.0, 10, and 30 μM, respectively. The resulting mixtures were continued the incubation of 24 h at 37 °C, and then subjected to fluorescent measurements as in the polymerization assay.
as §1

T1 sequence (P05067 672-713 limits assumed, species assumed): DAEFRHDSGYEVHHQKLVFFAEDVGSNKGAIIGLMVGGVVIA
T2 sequence (P05067 672-713 limits assumed, species assumed): as above

IC50 [1] [µM] | EC50 [3] [µM] | Compound | activity towards Aβ42 aggregation in vitro (in words) [2] | inhibitory activity towards Aβ42 aggregation (in words) ([1]; this paper's polymerization assay) | ability to destabilize fibrils (in words) ([3]; this paper's destabilization assay)
14.9 ± 3.42 | 5.27 ± 1.26 | Oc1cc(O)c2c(c1)O[C@H](c1ccc(O)c(O)c1)[C@@H](O)C2 [C, (+)-catechin] | very little activity |  | 
9.44 ± 0.24 | 5.99 ± 0.6 | Oc1cc(O)c2c(c1)O[C@H](c1ccc(O)c(O)c1)[C@H](O)C2 [EC, (−)-epicatechin] |  |  | 
3.28 ± 0.46 | 3.51 ± 0.32 | Oc1cc(O)c2c(c1)O[C@H](c1ccc(O)c(O)c1)[C@H](O)[C@H]2c1c(O)cc(O)c2c1O[C@H](c1ccc(O)c(O)c1)[C@@H](O)C2 [P-B1, Procyanidin B1] |  |  | 
3.54 ± 0.39 | 5.12 ± 0.75 | Oc1cc(O)c2c(c1)O[C@H](c1ccc(O)c(O)c1)[C@@H](O)[C@@H]2c1c(O)cc(O)c2c1O[C@H](c1ccc(O)c(O)c1)[C@@H](O)C2 [P-B3, procyanidin B3] |  |  | 
 |  | CC(C)(C)[C@]1(O)CC2OC(=O)CC23C(=O)OC2OC(=O)[C@H](O)C231 (stereo partly drawn) [bilobalide] | very little activity |  | 
 |  | C[C@@H]1C(=O)O[C@H]2C[C@@]34[C@H]5C[C@@H](C(C)(C)C)[C@]36[C@@H](OC(=O)[C@@H]6O)O[C@@]4(C(=O)O5)[C@]21O [ginkgolides A, ginkgolide A] | very little activity |  | 
 |  | ginkgolide B | very little activity |  | 

Compound | IC50 [1] [µM] | EC50 [3] [µM] | activity towards Aβ42 aggregation in vitro (in words) [2] | inhibitory activity towards Aβ42 aggregation (in words) ([1]; this paper's polymerization assay) | ability to destabilize fibrils (in words) ([3]; this paper's destabilization assay)
Oc1cc(O)c2c(c1)O[C@H](c1cc(O)c(O)c(O)c1)[C@H](O)C2 [EGC, (−)-epigallocatechin] | 8.51 ± 0.96 | 7.76 ± 0.94 |  |  | 
Oc1cc(O)c2c(c1)O[C@H](c1cc(O)c(O)c(O)c1)[C@@H](O)C2 [GC, (−)-gallocatechin] | 17.5 ± 0.57 | 15.7 ± 3.19 |  | least influence | least influence
